Data from US20120046273A1, “COMPOUNDS AND COMPOSITIONS FOR COGNITION-ENHANCEMENT, METHODS OF MAKING, AND METHODS OF TREATING” (MITHRIDION, INC., priority 2009, published 2012).
Structures can show the parent of a compound that is named as a salt.

Key:
[1] = Brain concentrations in rats after oral gavage; format: in vivo, rat; conditions: for Brain Cmax (10 mg/kg po) MCD-386 = 1.00: rat, relative to MCD-386; for penetration into the brain: rats after oral dosing
Procedure: Long-Evans Hooded rats (Charles River: male, 250-350 g) were dosed with solutions of test compounds in PBS by oral gavage. At the desired time after dosing, the animals were anesthetized with isoflurane, and then euthanized by cervical dislocation. Blood was obtained by cardiac puncture, transferred to a 1.5 mL microcentrifuge tube containing 15U Heparin, and the plasma recovered after centrifugation. Brains were dissected, weighed, immediately chilled to 4° C., and homogenized using a PowerGen 125 homogenizer in five volumes of ice-cold 2% formic acid. Proteins were precipitated from plasma and brain homogenate with two and five volumes respectively of ice-cold 2% formic acid and clarified by centrifugation. The supernatant was ultra-filtered by centrifugation through a 3K MWCO spin column (Pall Life Sciences), following the manufacturer's instructions. The concentration of compound in the ultra-filtrate was subjected to reverse-phase liquid chromatography using a 150×2.1 mm Agilent C8 reverse-phase column on a Shimadzu Prominence LC, eluting the compounds with a gradient of 2% to 50% of acetonitrile+0.1% formic acid for compound MI-50,382, or an isocratic flow of 2% acetonitrile+0.1% formic acid for the rest of the compounds listed. The concentration of the compound in the column effluent was measured using an Applied Biosystems API-3200 triple quadrupole mass spectrometer equipped with an electrospray sample injection system. The counts of the characteristic parent and product ions of each test compound were converted to concentration units by comparison with a standard calibration curve.

rat M3 receptors = target: T1, rat M3 receptors (Rattus norvegicus, UniProt P08483); assay: PI turnover (inositol phosphate production) in M3-CHO cells; format: cell-based; conditions: relative to mean Smax for carbachol (100.0)
T1 construct: host or cells: Chinese Hamster Ovary cells (M3-CHO)
Procedure: (§1) The medium was changed to 70 μL/well of inositol-free DMEM containing 2 mM glutamine, 10% FBS and 10 μCi/ml of [3H]-inositol (PE:cat # NET114A250UC), incubated overnight as above, then 100 μL of a solution of the test compound in HBSS containing 10 mM LiCl and 20 mM HEPES, pH 7.4 was added, incubation was continued for 60 min under the above conditions, and the test was stopped by removing the test compound and replacing with 100 μL of 50 mM formic acid in water at 4° C.

[2] = Metabolites in serum and urine of dosed rats (LC-MS); format: in vivo; conditions: rat serum/plasma or urine, oral dosing; hydrochloride
Procedure: Oxadiazoles disclosed herein as well as other oxadiazoles were investigated to determine the formation of metabolites. Animals were dosed, blood taken, serum prepared, serum proteins precipitated and ultrafiltrates prepared as described in Example 6. In separate experiments, urine was collected from rats for 16-24 hours after dosing, using standard metabolic cages. The urine container and collected urine were maintained at 4° C. Urine was lyophilized, taken back into water. The ultrafiltrate was prepared by adding formic acid to a final concentration of 1% to the urine samples, then filtered through a 0.2 um nylon membrane. The ultrafiltrate was subjected to LC-MS analysis. Instead of measuring the product ions in Q3, manual Q1 scans of the liquid chromatograph were undertaken, seeking parent ions of potential metabolites of the compounds. The criteria for identifying metabolites were as follows: (1) the ion should be present in the sera or urines of dosed rats, but not in sera or urines from non-dosed rats (2) the ion should be identifiable as a metabolic derivative of the dosed compound (e.g. loss of a functional chemical moiety, addition of a hydroxyl group or a glucuronic acid moiety, etc). Metabolites were determined not to be present if no compound meeting the above criteria could be detected in serum or urine.

rat M1 receptors = target: T2, rat M1 receptors (Rattus norvegicus, UniProt P08482); assay: PI turnover (inositol phosphate production) in M1-CHO cells; format: cell-based; conditions: for functional selectivity for M1- versus M3-subtype by PI turnover: cell lines expressing individual subtypes of muscarinic receptors; for M1/CHO PI turnover Relative Mean Smax: relative to mean Smax for carbachol (100.0)
T2 construct: host or cells: Chinese Hamster Ovary cells (M1-CHO)
T2 sequence (P08482 1-460): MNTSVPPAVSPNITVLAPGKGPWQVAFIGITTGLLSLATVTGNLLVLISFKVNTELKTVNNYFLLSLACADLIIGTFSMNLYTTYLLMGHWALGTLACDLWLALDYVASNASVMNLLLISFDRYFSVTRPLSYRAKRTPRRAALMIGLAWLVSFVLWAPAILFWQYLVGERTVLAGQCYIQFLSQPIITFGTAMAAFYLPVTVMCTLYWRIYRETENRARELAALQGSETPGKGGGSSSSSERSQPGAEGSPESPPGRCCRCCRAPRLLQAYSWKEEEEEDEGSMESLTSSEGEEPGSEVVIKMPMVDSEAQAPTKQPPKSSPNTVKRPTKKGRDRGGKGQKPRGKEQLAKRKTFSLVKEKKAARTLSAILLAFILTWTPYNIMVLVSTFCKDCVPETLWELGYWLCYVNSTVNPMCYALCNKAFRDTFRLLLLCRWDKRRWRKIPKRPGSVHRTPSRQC
Procedure: as §1

rats = assay: Salivary flow in rats dosed orally; format: in vivo, rat
[3] = test system: hippocampal inositol phosphate signaling pathway; assay: In vivo tissue inositol phosphate signaling pathway activation, hippocampus; parameters: species or system rat; conditions: 1 mg/kg of 82; NMS 0.1 mg/kg
Procedure: (§2) Experimental compounds or drug substances were administered using standard techniques to Long Evans Hooded rats weighing 225 to 350 grams, and which had been pretreated with a subcutaneous injection of lithium chloride at a suitable dose between 3 and 10 mmoles per kg. At suitable times the animals were briefly anesthetized using 5% isoflurane and euthanized by decapitation. The brains and submaxillary salivary glands were rapidly dissected out, and the hippocampuses were dissected from the brains. The dissected tissues were homogenized in a suitable volume of ice-cold phosphate-buffered saline containing 10 mM lithium chloride, pH7.4, using a tissue homogenizer, and used immediately or frozen in aliquots at −80degC. for future use. The concentration of inositol-1-phosphate was determined in the homogenates using the IPOne TR-FRET assay (CisBio cat no 621PAPEB), following the manufacturer's instruction

anesthetized rats = assay: Salivation on iontophoretic transdermal delivery of agonist and antagonist from one patch; format: in vivo, rat; conditions: patch with 1 mg of 82 plus 0.01mg antagonist
Procedure: Experimental compounds and drug substances were delivered transdermally in rats using iontophoresis as follows. The fur was shaved from the backs of Long Evans Hooded rats weighing 225 to 325 grams, using electric clippers. Experimental compounds and drug substances were formulated at suitable concentrations an aqueous mixture of the following composition:
The polyvinyl alcohol/water was heated to 95 degC. until it became clear, then the other constituents were added and mixed well. The mixture was introduced into suitable molds containing a disc-shaped cavity 2.2 cm diameter and 2.2 mm deep. Molds may be fabricated using two glass sheets separated by a silicone rubber sheet with suitable sized cavities and filling ports cut-outs. The molds were subject to 3 freeze-thaw cycles at −80degC. and 20degC. until a firm cryogel was obtained. The gels were separated from the molds and trimmed into a circular shape. The gel was placed in a silicone rubber casing with one face in contact with a circular silver foil anodic electrode (22 mm dia/250 microns thick), and the assembly was placed on the shaved skin of the rat such that the other face was in contact with the skin on one side of the back of the rat. The rubber casing formed a seal over and around the gel/electrode assembly. […] This was placed on the other side of the shaved back of the rat, the edges of the gel discs being about 20 mm apart at their nearest point. A DC voltage was applied across the two patches from a constant-current DC power supply and the voltage adjusted to obtain the desired current, such that the skin of the animal completed the electrical circuit.
The devices were placed on shaved backs of anesthetized rats and salivation was measured.
(§3) The animals were placed slightly head-down on an inclined, heated ramp. Rectal temperature was monitored using a thermocouple and the temperature of the heating pad was adjusted manually to maintain normal body temperature. Saliva was collected from the mouth by absorption onto pre-weighed slips of filter paper. The filter paper was changed periodically and the amount of saliva was measured by weighing the filter paper slips

anesthetized normal rats = assay: In vivo measurement of salivation; parameters: species or system rat
Procedure: as §3, with “Suitable doses of test compounds or drug substances were administered using standard techniques to Long Evans Hooded rats weighing 225 to 350 grams, or CD-1 mice weighing 30 to 50 grams, which had been anesthetized using 2-3.5%% of isoflurane in oxygen. The animals” for “The animals”

[4] = test system: salivary gland inositol phosphate signaling pathway; assay: In vivo tissue inositol phosphate signaling pathway activation, salivary gland; parameters: species or system rat; conditions: 1 mg/kg of 82
Procedure: as §2

[5] = rat, in vivo, po

T1 sequence (P08483 whole entry): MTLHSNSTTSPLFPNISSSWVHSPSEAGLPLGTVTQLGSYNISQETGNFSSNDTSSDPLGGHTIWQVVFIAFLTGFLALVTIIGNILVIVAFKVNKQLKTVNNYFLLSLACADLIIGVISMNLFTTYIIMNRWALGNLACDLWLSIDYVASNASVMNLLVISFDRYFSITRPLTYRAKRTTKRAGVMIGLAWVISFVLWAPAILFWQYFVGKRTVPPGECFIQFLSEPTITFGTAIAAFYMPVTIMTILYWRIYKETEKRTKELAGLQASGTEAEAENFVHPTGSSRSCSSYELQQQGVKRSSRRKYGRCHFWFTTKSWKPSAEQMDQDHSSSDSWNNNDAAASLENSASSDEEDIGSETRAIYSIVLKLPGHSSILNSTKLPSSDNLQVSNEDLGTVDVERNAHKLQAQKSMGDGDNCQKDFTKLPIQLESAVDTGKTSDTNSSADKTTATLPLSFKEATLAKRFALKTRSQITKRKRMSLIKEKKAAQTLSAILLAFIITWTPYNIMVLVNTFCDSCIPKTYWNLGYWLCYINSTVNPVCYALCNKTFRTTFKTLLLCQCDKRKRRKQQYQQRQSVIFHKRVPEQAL

[2H]C([2H])(C)c1noc(C2CN=CNC2)n1 (stereo not drawn) [Compound 66, 3-(2,2-d2-Ethyl)-5-(1,4,5,6-tetrahydropyrimidin-5-yl)-1,2,4-oxadiazole hydrochloride]
Brain Cmax (10 mg/kg po) MCD-386 = 1.00 [1]: 0.82 | penetration into the brain [1]: penetrated into the brain | M3/CHO PI turnover Relative Mean Smax (rat M3 receptors): 15.1 | Presence of metabolites (10 mg/kg po) [2]: No metabolites were identified and No | functional selectivity for M1- versus M3-subtype by PI turnover (rat M1 receptors): M1-subtype functionally selective muscarinic agonists | M1/CHO PI turnover Relative Mean Smax (rat M1 receptors): 84.0

[2H]C([2H])([2H])C([2H])([2H])c1noc(C2CN=CNC2)n1 (stereo not drawn) [Compound 70, 3-(1,1,2,2,2-d5-ethyl)-5-(1,4,5,6-tetrahydropyrimidin-5-yl)-1,2,4-oxadiazole hydrochloride]
Brain Cmax (10 mg/kg po) MCD-386 = 1.00 [1]: 0.61 | penetration into the brain [1]: penetrated into the brain | M3/CHO PI turnover Relative Mean Smax (rat M3 receptors): 16.5 | Presence of metabolites (10 mg/kg po) [2]: No metabolites were identified and No | functional selectivity for M1- versus M3-subtype by PI turnover (rat M1 receptors): M1-subtype functionally selective muscarinic agonists | M1/CHO PI turnover Relative Mean Smax (rat M1 receptors): 67.7

Cl.[2H]C([2H])([2H])c1noc(C2CN=CNC2)n1 (stereo not drawn) [Compound 74, 3-(d3-methyl)-5-(1,4,5,6-tetrahydropyrimidin-5-yl)-1,2,4-oxadiazole hydrochloride]
salivary flow (rats): copious salivary flow | agonist efficacy at M1- and M3-subtype muscarinic receptors by PI turnover (rat M1 receptors): near full-agonist | functional selectivity for M1- versus M3-subtype by PI turnover (rat M1 receptors): not selective for the M1 subtype | M1/CHO PI turnover Relative Mean Smax (rat M1 receptors): 98.6

[2H]C([2H])([2H])Cc1noc(C2CN=CNC2)n1 (stereo not drawn) [Compound 78, 3-(2,2,2-d3-Ethyl)-5-(1,4,5,6-tetrahydropyrimidin-5-yl)-1,2,4-oxadiazole hydrochloride]
M3/CHO PI turnover Relative Mean Smax (rat M3 receptors): 28.8 | M1/CHO PI turnover Relative Mean Smax (rat M1 receptors): 48.9

C[N+]1(C)[C@@H]2C[C@@H](OC(=O)[C@H](CO)c3ccccc3)C[C@H]1[C@@H]1O[C@@H]12 [NMS, N-methylscopolamine]
inhibition of increase in inositol phosphate in the hippocampus caused by 82 [3]: does not inhibit | reduction of salivation caused by transdermal iontophoretic delivery of 82 (anesthetized rats): greatly reduced | decrease in salivation caused by 82 (anesthetized normal rats; 0.3 mg/kg of 82): dose-dependent decrease in salivation | reduction in salivation caused by MCD-386 (anesthetized normal rats; 1 mg/kg dose of MCD-386): dose-dependent reduction | block of increase in salivary gland inositol phosphate caused by 82 ([4]; NMS 0.003 mg/kg): some breakthrough activation | block of increase in salivary gland inositol phosphate caused by 82 ([4]; NMS 0.03 mg/kg to 0.01 mg/kg): nearly as effective as 0.1 mg/kg | block of increase in salivary gland inositol phosphate caused by 82 ([4]; antagonist 0.1 mg/kg NMS): completely block

CNC(=C[N+](=O)[O-])NCCSCc1ccc(CN(C)C)o1 [Ranitidine, reference compound]
PAMPA (? × 106): 0.26 ? × 106 | Brain/plasma ratio [5]: Very low
